Test results taken from patent US20130116219A1, “ANTIMICROBIAL CARBOLINE COMPOUNDS” (ALCON RESEARCH, LTD., priority 2011, published 2013).

System: Ad5
Assay: Ad5 genome replication assay (cell-based QPCR) in A549 cells
Settings: Human adenovirus sp., A549, 72 h, read-out: Ad5 qPCR EC50 (μM)
Procedure: Compounds of the present invention were tested for potency against Ad5 in an Ad5 genome replication assay, a cell-based QPCR assay of Ad5 genome replication in A549 cells, a human lung carcinoma cell line. Serotype of human Ad5, used in this replication assay can also replicate in a NZW rabbit model of adenoviral ocular keratitis.
EC50 values (μM) for inhibition of adenoviral replication were determined by QPCR. Briefly, 10,000 cultured A549 cells were inoculated with 25,000 pfu/well for 3 hrs in 2% FBS F12-K A549 culture media. Following inoculation, A549 cells were treated with log unit dilutions of compound of Formula I (˜10 μM thru˜10 pM) in 10% FBS F12-K culture media with 0.3% DMSO for an additional 3 days. Cell viability was assessed with Alamar Blue (10 μl/well for 2 hrs; fluorescence Ex353; Em595 nm). Plates were washed 3 times with 125 μl PBS, cell lysates were prepared for QPCR analysis using Cells to SNP kit (Life Technologies). Ad5 genome levels per cell were determined with RNaseP and Ad5 hexon Taqman Assays (Life Technologies). EC50, the concentration that inhibited Ad5 genome replication formation by 50%, was estimated from plots of Ad5 genomes/cell vs. compound concentration.

## CC(C)CC1c2[nH]c3ccc(Cl)cc3c2CCN1C(=O)CN1CCC(F)(F)CC1 (stereo not shown) [Compound 7]
  EC50: 0.1 to 1 µM

## CC(C)CC1c2[nH]c3ccc(Cl)cc3c2CCN1C(=O)C(C)CN1CCC(F)(F)CC1 (stereo not shown) [Compound 37]
  EC50: 0.1 to 1 µM

## CC(C)CC1c2[nH]c3ccc(Cl)cc3c2CCN1C(=O)c1ccccn1 (stereo not shown) [Compound 52]
  EC50: 0.1 to 1 µM

## CC(C)CC1c2[nH]c3ccc(Cl)cc3c2CCN1C(=O)CCCN1CCC(F)(F)CC1 (stereo not shown) [Compound 12]
  EC50: > 1 µM

## CC(C)C[C@H]1c2[nH]c3ccc(Cl)cc3c2CCN1C(=O)CNC1CC(F)(F)C1 [Compound 104, (S)-1-(6-chloro-1-isobutyl-3,4-dihydro-1H-pyrido[3,4-b]indol-2(9H)-yl)-2-((3,3-difluorocyclobutyl)amino)ethanone]
  EC50: < 0.1 µM

## CC(C)C[C@H]1c2[nH]c3ccc(Cl)cc3c2CCN1C(=O)CC1CCN(CC(F)F)CC1 [Compound 100]
  EC50: < 0.1 µM

## CC(C)CC1c2[nH]c3ccc(Cl)cc3c2CCN1C(=O)CCc1ccccc1 (stereo not shown) [Compound 1]
  EC50: 0.1 to 1 µM

## CC(C)CC1c2[nH]c3ccc(Cl)cc3c2CCN1C(=O)CCN1CCCCC1 (stereo not shown) [Compound 3]
  EC50: > 1 µM

## CC(C)CC1c2[nH]c3ccc(Cl)cc3c2CCN1CC1CC1 (stereo not shown) [Compound 96]
  EC50: 0.1 to 1 µM

## CC(C)CC1c2[nH]c3ccc(Cl)cc3c2CCN1C(=O)CNCCN1CCC(F)(F)CC1 (stereo not shown) [Compound 86]
  EC50: > 1 µM

## O=C(CCN1CCC(F)(F)CC1)N1CCc2c([nH]c3ccc(Cl)cc23)C1c1ccc(F)cc1 (stereo not shown) [Compound 5]
  EC50: > 1 µM

## CC(C)C[C@H]1c2[nH]c3ccc(Cl)cc3c2CCN1C(=O)OCCN1CC[C@H](F)C1 [Compound 38]
  EC50: 0.1 to 1 µM

## CC(C)CC1c2[nH]c3ccc(Cl)cc3c2CCN1C(=O)c1ccccc1 (stereo not shown) [Compound 62]
  EC50: 0.1 to 1 µM

## CC(C)CC1c2[nH]c3ccc(Cl)cc3c2CCN1C(=O)Cc1ccccn1 (stereo not shown) [Compound 59]
  EC50: > 1 µM

## CC(C)C[C@H]1c2[nH]c3ccc(Br)cc3c2CCN1C(=O)CCN1CC[C@H](F)C1 [Compound 105]
  EC50: 0.1 to 1 µM

## COc1ccc2[nH]c3c(c2c1)CCN(C(=O)CCN1CCC(F)(F)CC1)C3CC(C)C (stereo not shown) [Compound 51]
  EC50: 0.1 to 1 µM

## CC(C)CC1c2[nH]c3ccc(Cl)cc3c2CCN1C(=O)C1(F)CN(CC(C)C)C1 (stereo not shown) [Compound 103, (6-chloro-1-isobutyl-3,4-dihydro-1H-pyrido[3,4-b]indol-2(9H)-yl)(3-fluoro-1-isobutylazetidin-3-yl)methanone]
  EC50: < 0.1 µM

## CC(C)CC1c2[nH]c3ccc(Cl)cc3c2CCN1CCN1CC[C@H](F)C1 (stereo partly shown) [Compound 101]
  EC50: > 1 µM

## CC(C)CC1c2[nH]c3ccc(Cl)cc3c2CCN1C(=O)CN1CC(F)C1 (stereo not shown) [Compound 41]
  EC50: 0.1 to 1 µM

## CC(C)CC1c2[nH]c3ccc(Cl)cc3c2CCN1C(=O)C1CN(CC(C)C)C1 (stereo not shown) [Compound 39]
  EC50: > 1 µM

## CC(C)CC1c2[nH]c3ccc(Cl)cc3c2CCN1C(=O)Cc1cccnc1 (stereo not shown) [Compound 60]
  EC50: > 1 µM

## CC(C)CC1c2[nH]c3ccc(Cl)cc3c2CCN1C(=O)CCN1CCC(CF)CC1 (stereo not shown) [Compound 16]
  EC50: 0.1 to 1 µM

## CC(C)C[C@H]1c2[nH]c3ccc(Cl)cc3c2CCN1C(=O)C1CCN(CC(F)F)CC1 [Compound 83]
  EC50: 0.1 to 1 µM

## CC(C)CC1c2[nH]c3ccc(Cl)cc3c2CCN1C(=O)CN1CC(F)(F)C1 (stereo not shown) [Compound 85, 1-(6-chloro-1-isobutyl-3,4-dihydro-1H-pyrido[3,4-b]indol-2(9H)-yl)-2-(3,3-difluoroazetidin-1-yl)ethanone]
  EC50: < 0.1 µM

## CC(C)CC1c2[nH]c3ccc(Cl)cc3c2CCN1C(=O)OCCN1CCC(F)(F)CC1 (stereo not shown) [Compound 14]
  EC50: 0.1 to 1 µM
